US20200171117A1, “DRY EYE BOTANICALS” (ACCESS BUSINESS GROUP INTERNATIONAL LLC, priority 2018, published 2020)
Values joined by “and” are separate entries in the source; they are usually repeats but may differ in a detail not shown here. Equal entries are not always repeated.

Assays:
[1] = system: HMGEC (immortalized human meibomian gland epithelial cells); experiment: PPARγ-mediated lipid synthesis activity in HMGECs (LipidTox Green neutral lipid staining); type: cell-based; conditions: for Effect on lipid synthesis (in words): compared with Rosi
Experimental: Extracts of loquat and ginger identified in Example 1 are tested for their effect on lipid synthesis and PPARγ receptor activation using HMGECs. In particular, HMGECs are plated on collagen coated glass cover slips and treated with samples of each extract (varying concentrations in Media 1 with 0.1% DMSO), positive control (Rosi, 30 μM in Media 1 with 0.1% DMSO), and negative control (Media 1 with 0.1% DMSO) and incubated for 6 days. The treated cells are then fixed, stained with LipidTox Green, and the area of neutral lipid staining quantified.

[2] = system: PPARγ response genes ADFP, ELOVL4, and ANGPTL4; experiment: Real-time PCR of PPARγ response gene expression; type: cell-based; conditions: FIGS. 1-4
Experimental: Loquat Extract #1 (“538”), and known phytochemical components thereof (oleanolic acid (“OA”); ursolic acid (“UA”)), are analyzed by real-time PCR (BioRad CFX96 Thermal Cycler, Hercules, Calif. (or equivalent)), to assess sample-induced expression of the PPARγ response genes ADFP, ELOVL4, and ANGPTL4 via mRNA quantification. In particular, samples are prepared and analyzed according to the procedure set forth in Jester et. al., “PPARγ regulates mouse meibocyte differentiation and lipid synthesis,” The Ocular Surface 14.4 (2016): 484-494, the disclosure of which is herein incorporated by […]. The results of the quantification are shown in FIGS. 1-4, where the vertical (Y) axis of each plot corresponds to the fold change in response observed.
To assess the effects on gene expression mediation via PPARγ signaling, a PPARγ-specific antagonist (T0070907; (“T”)) is added to inhibit PPARγ signaling. […] As such, Loquat leaf is shown to have specific and synergistic PPARγ agonist activity that may be unrelated to individual phytochemical components thereof.

SMILES | Effect on lipid synthesis (in words) [1] | PPARγ response gene expression (mRNA of ADFP, ELOVL4, ANGPTL4; PPARγ), fold change, in words [2] | % Lipid Mean (percent positive control, Rosi set at 100%) ([1]; 30 μM, 6 days) | Nuclei Mean ([1]; 30 μM, 6 days)
CC1(C)CC[C@]2(C(=O)O)CC[C@]3(C)C(=CC[C@@H]4[C@@]5(C)CC[C@H](O)C(C)(C)[C@@H]5CC[C@]43C)[C@@H]2C1 [oleanolic acid] | no individual effects | no individual effects |  | 
CN(CCOc1ccc(CC2SC(=O)NC2=O)cc1)c1ccccn1 (stereo not drawn) [Rosi, Rosiglitazone] |  |  | 97.5% and 100% | 1622.13 and 1070
C[C@H]1[C@H](C)CC[C@]2(C(=O)O)CC[C@]3(C)C(=CC[C@@H]4[C@@]5(C)CC[C@H](O)C(C)(C)[C@@H]5CC[C@]43C)[C@H]12 [ursolic acid] | no individual effects | no individual effects |  | 
